According to patent US20070054884A1 (priority 2005, published 2007):
≈ marks a conversion by molar mass, not a printed value.

Experiments:
B. cereus = test: Minimum Inhibitory Concentration (MIC), broth dilution method; assay type: cell-based; conditions: Bacillus cereus, read-out: MIC B. cereus
Method: (§1) Minimum Inhibitory Concentration (MIC), Broth Dilution Method:
(§2) The compounds of the present invention were tested against selected Gram positive and Gram negative organisms using standard microtitration techniques well known to those skilled in the art. Cultures of bacteria were initially applied by streaking a loopful onto agar plates under the appropriate conditions. For example, bacterial stocks are streaked for isolation of single colonies onto chocolate agar and then incubated for 18 hours at 35-37° C. in a 5% CO2 incubator. Five to ten colonies were picked from the chocolate agar plate for subculture to Brain-Heart infusion (BHI) broth, Mueller Hinton broth, or BHI containing 4% serum, and incubated under the appropriate conditions. The ability of the test compound to act as an antimicrobial was determined by the ability of dilutions of the test substance to inhibit bacterial growth in vitro. The optical density of the culture of organisms in the presence of an active compound was compared to the optical density of the same organism grown without test compound. The activity of the compounds is described as either negative or the lowest concentration inhibiting growth (Minimum Inhibitory Concentration [MIC]).
(§3) The activity of selected compounds of the present invention against representative Gram positive and Gram negative bacteria are shown in the following Table 1.

S. aureus 29213 = test: as above; assay type: cell-based; conditions: Staphylococcus aureus, 29213, read-out: MIC S. aureus 29213
Method: as §1, §2, §3

B.anthracis V770-NR1-R = test: microbe, parasite or virus in culture; assay type: cell-based; conditions: Bacillus anthracis, V770NR1R, read-out: MIC B.anthracis V770-NR1-R
S. pneumoniae 11733 = test: Minimum Inhibitory Concentration (MIC), broth dilution method; assay type: cell-based; conditions: Streptococcus pneumoniae, 11733, read-out: MIC S. pneumoniae 11733
Method: as §1, §2, §3

| Structure (SMILES) | MIC (B. cereus) [µg/mL] | MIC (S. aureus 29213) [µg/mL] | MIC (B.anthracis V770-NR1-R) [µg/mL] | melting point [°C] | MIC (S. pneumoniae 11733) [µg/mL] |
| --- | --- | --- | --- | --- | --- |
| Oc1cc(Cl)c(-n2cccc2)cc1Oc1ccc(Cl)cc1Cl [Example 17, 5-Chloro-2-(2,4-dichloro-phenoxy)-4-pyrrol-1-yl-phenol] | 50 (≈ 141 µM) | 250 (≈ 705 µM) | 100 (≈ 282 µM) | 86 to 87 | – |
| COc1ccc(NC(=S)Nc2cc(Oc3ccc(Cl)cc3Cl)c(O)cc2Cl)cc1 [Example 11, 1-[2-Chloro-5-(2,4-dichloro-phenoxy)-4-hydroxy-phenyl]-3-(4-methoxy-phenyl)-thiourea] | – | 7900 (≈ 16800 µM) | – | – | 31300 (≈ 66600 µM) |
| O=C(O)c1nc(-c2cc(Oc3ccc(Cl)cc3Cl)c(O)cc2Cl)no1 [Example 36, 3-[2-Chloro-5-(2,4-dichloro-phenoxy)-4-hydroxy-phenyl]-[1,2,4]oxadiazole-5-carboxylic acid] | 100 (≈ 249 µM) | 200 (≈ 498 µM) | 50 (≈ 125 µM) | 115 | – |
| Oc1cc(Cl)c(-c2ccsc2)cc1Oc1ccc(Cl)cc1Cl [Example 5, 5-Chloro-2-(2,4-dichloro-phenoxy)-4-thiophen-3-yl-phenol] | 200 (≈ 538 µM) | 130 (≈ 350 µM) | 400 (≈ 1080 µM) | – | 10 (≈ 26.9 µM) |
| Cc1nnsc1C(=O)Nc1cc(Oc2ccc(Cl)cc2Cl)c(O)cc1Cl [Example 21, 4-Methyl-[1,2,3]thiadiazole-5-carboxylic acid [2-chloro-5-(2,4-dichloro-phenoxy)-4-hydroxy-phenyl]-amide] | – | 4000 (≈ 9290 µM) | – | – | 4000 (≈ 9290 µM) |
| CCOC(=O)NC(=S)Nc1cc(Oc2ccc(Cl)cc2Cl)c(O)cc1Cl [Example 7] | 800 (≈ 1840 µM) | 2000 (≈ 4590 µM) | 1600 (≈ 3670 µM) | 170 to 172 | 31300 (≈ 71800 µM) |
| Oc1cc(Cl)c(-c2nnn[nH]2)cc1Oc1ccc(Cl)cc1Cl [Example 33, 5-Chloro-2-(2,4-dichloro-phenoxy)-4-(1H-tetrazol-5-yl)-phenol] | 6200 (≈ 17300 µM) | 200 (≈ 559 µM) | 12500 (≈ 35000 µM) | 174 to 180 | – |
| Cc1cc(O)c(Oc2ccccc2C#N)cc1-c1cccs1 [Example 26, 2-(2-Hydroxy-4-methyl-5-thiophen-2-yl-phenoxy)-benzonitrile] | 12500 (≈ 40700 µM) | 4000 (≈ 13000 µM) | 12500 (≈ 40700 µM) | – | 500 (≈ 1630 µM) |
| Oc1cc(Cl)c(NC(=S)NC2CCCCC2)cc1Oc1ccc(Cl)cc1Cl [Example 12, 1-[2-Chloro-5-(2,4-dichloro-phenoxy)-4-hydroxy-phenyl]-3-cyclohexyl-thiourea] | – | 2000 (≈ 4490 µM) | – | – | 31300 (≈ 70200 µM) |
| Oc1cc(Cl)c(NC(=S)Nc2cc(C(F)(F)F)cc(C(F)(F)F)c2)cc1Oc1ccc(Cl)cc1Cl [Example 16, 1-(3,5-Bis-trifluoromethyl-phenyl)-3-[2-chloro-5-(2,4-dichloro-phenoxy)-4-hydroxy-phenyl]-thiourea] | 100 (≈ 174 µM) | 500 (≈ 868 µM) | 200 (≈ 347 µM) | – | – |
| Cc1cc(O)c(Oc2ccccc2C#N)cc1-c1ccsc1 [Example 27, 2-(2-Hydroxy-4-methyl-5-thiophen-3-yl-phenoxy)-benzonitrile] | 800 (≈ 2600 µM) | 6200 (≈ 20200 µM) | 1600 (≈ 5210 µM) | – | > 25000 |
| Oc1cc(Cl)c(NC(=S)Nc2ccc(F)cc2)cc1Oc1ccc(Cl)cc1Cl [Example 10, 1-[2-Chloro-5-(2,4-dichloro-phenoxy)-4-hydroxy-phenyl]-3-(4-fluoro-phenyl)-thiourea] | 400 (≈ 874 µM) | 4000 (≈ 8740 µM) | 1600 (≈ 3500 µM) | 89 to 91 | 31300 (≈ 68400 µM) |
| Oc1cc(Cl)c(-c2cccs2)cc1Oc1ccc(Cl)cc1Cl [Example 3, 5-Chloro-2-(2,4-dichloro-phenoxy)-4-thiophen-2-yl-phenol] | 50 (≈ 135 µM) | 60 (≈ 161 µM) | 50 (≈ 135 µM) | – | 10 (≈ 26.9 µM) |
| O=C(Nc1cc(C(F)(F)F)cc(C(F)(F)F)c1)Nc1cc(Oc2ccc(Cl)cc2Cl)c(O)cc1Cl [Example 15, 1-(3,5-Bis-trifluoromethyl-phenyl)-3-[2-chloro-5-(2,4-dichloro-phenoxy)-4-hydroxy-phenyl]-urea] | 100 (≈ 179 µM) | 4000 (≈ 7150 µM) | 800 (≈ 1430 µM) | – | – |
| Oc1cc(Cl)c(-c2ccco2)cc1Oc1ccc(Cl)cc1Cl [Example 4, 5-Chloro-2-(2,4-dichloro-phenoxy)-4-furan-2-yl-phenol] | – | 500 (≈ 1410 µM) | – | – | 500 (≈ 1410 µM) |
| Cc1cc(O)c(Oc2ccccc2C#N)cc1-n1cccc1 [Example 29, 2-(2-Hydroxy-4-methyl-5-pyrrol-1-yl-phenoxy)-benzonitrile] | 4000 (≈ 13800 µM) | 62500 (≈ 215000 µM) | – | 158 to 160 | 500 (≈ 1720 µM) |
